Data from ChEMBL document CHEMBL5724914, “Linking interpersonal differences in gut microbiota composition and drug biotransformation activity” (2024).

Experiments:
[1] = human gut metagenome, 24 h, 2 µM
[2] = human gut metagenome, 24 h, 2 µM; remark: listed apart in the source
[3] = human gut metagenome, 24 h, 2 µM; remark: listed apart in the source
[4] = human gut metagenome, 24 h, 2 µM; remark: listed apart in the source
[5] = (§1) The drug is tested on Z-026 corresponding to metagenome with ENA study accession number: PRJEB37062 and ENA sample accession number: ERS12561825 for biotransformation under anaerobic condition. The drug concentrations were measured over 9 timepoints collected between 0 and 24 hours of incubation by liquid-chromatography-coupled mass spectrometry (LC–MS); conditions: 2 µM
[6] = as §1, with “Z-005” for “Z-026”, “ERS12561805” for “ERS12561825”; conditions: 2 µM
[7] = human gut metagenome, 24 h, 2 µM; remark: listed apart in the source
[8] = human gut metagenome, 24 h, 2 µM; remark: listed apart in the source
[9] = (§2) The drug is tested on Z-002 corresponding to rabbit gut metagenome with ENA study accession number: PRJEB37062 and ENA sample accession number: ERS12561802 for biotransformation under anaerobic condition. The drug concentrations were measured over 9 timepoints collected between 0 and 24 hours of incubation by liquid-chromatography-coupled mass spectrometry (LC–MS); conditions: 2 µM
[10] = human gut metagenome, 24 h, 2 µM; remark: listed apart in the source
[11] = human gut metagenome, 24 h, 2 µM; remark: listed apart in the source
[12] = human gut metagenome, 24 h, 2 µM; remark: listed apart in the source
[13] = as §2, with “WLS-052” for “Z-002”, “human” for “rabbit”, “ERS12561747” for “ERS12561802”; conditions: 2 µM
[14] = as §2, with “Z-024” for “Z-002”, “pig” for “rabbit”, “ERS12561823” for “ERS12561802”; conditions: 2 µM
[15] = as §2, with “WLS-090” for “Z-002”, “human” for “rabbit”, “ERS12561753” for “ERS12561802”; conditions: 2 µM
[16] = human gut metagenome, 24 h, 2 µM; remark: listed apart in the source
[17] = as §2, with “WLS-039” for “Z-002”, “human” for “rabbit”, “ERS12561746” for “ERS12561802”; conditions: 2 µM
[18] = as §2, with “WLS-350” for “Z-002”, “human” for “rabbit”, “ERS12561789” for “ERS12561802”; conditions: 2 µM
[19] = human gut metagenome, 24 h, 2 µM; remark: listed apart in the source
[20] = as §2, with “Z-020” for “Z-002”, “ERS12561819” for “ERS12561802”; conditions: 2 µM
Also: call rule not given here.

Row | SMILES | Bacterial Biotransformation [1] | Bacterial Biotransformation [2] | Bacterial Biotransformation [3] | Bacterial Biotransformation [4] | Bacterial Biotransformation [5] | Bacterial Biotransformation [6] | Bacterial Biotransformation [7] | Bacterial Biotransformation [8] | Bacterial Biotransformation [9] | Bacterial Biotransformation [10] | Bacterial Biotransformation [11] | Bacterial Biotransformation [12] | Bacterial Biotransformation [13] | Bacterial Biotransformation [14] | Bacterial Biotransformation [15] | Bacterial Biotransformation [16] | Bacterial Biotransformation [17] | Bacterial Biotransformation [18] | Bacterial Biotransformation [19] | Bacterial Biotransformation [20]
1 | CC(C)C[C@H]1C(=O)N2CCC[C@H]2[C@]2(O)O[C@](NC(=O)[C@@H]3C=C4c5cccc6[nH]c(Br)c(c56)C[C@H]4N(C)C3)(C(C)C)C(=O)N12.CS(=O)(=O)O [BROMOCRIPTINE MESYLATE] | Compound metabolized | Compound metabolized | Compound NOT metabolized | Compound NOT metabolized | Compound metabolized | Compound metabolized | Compound metabolized | Compound NOT metabolized | Compound metabolized | Compound metabolized | Compound metabolized | Compound NOT metabolized | Compound metabolized | Compound metabolized | Compound metabolized | Compound NOT metabolized | Compound metabolized | Compound metabolized | – | –
2 | CN1[C@@H]2CC[C@H]1C[C@@H](OC(=O)[C@H](CO)c1ccccc1)C2 [HYOSCYAMINE] | – | – | Compound metabolized | – | Compound NOT metabolized | – | Compound metabolized | – | – | – | – | Compound NOT metabolized | – | Compound NOT metabolized | – | – | – | – | Compound NOT metabolized | –
3 | O=C1C(CC[S+]([O-])c2ccccc2)C(=O)N(c2ccccc2)N1c1ccccc1 (centres undefined) [SULFINPYRAZONE] | Compound metabolized | Compound metabolized | Compound metabolized | Compound metabolized | Compound metabolized | – | Compound metabolized | Compound metabolized | Compound metabolized | Compound metabolized | Compound metabolized | Compound metabolized | Compound metabolized | Compound metabolized | Compound metabolized | Compound metabolized | Compound metabolized | Compound metabolized | Compound NOT metabolized | Compound NOT metabolized
4 | CC(=O)OCC(=O)NCCCOc1cccc(CN2CCCCC2)c1 [ROXATIDINE ACETATE] | Compound metabolized | Compound metabolized | Compound NOT metabolized | Compound metabolized | Compound metabolized | Compound metabolized | Compound metabolized | Compound metabolized | – | Compound metabolized | Compound metabolized | – | Compound metabolized | Compound metabolized | Compound metabolized | Compound metabolized | Compound metabolized | Compound metabolized | Compound metabolized | Compound metabolized
5 | CCCCCNC(=N)N/N=C/c1c[nH]c2ccc(OC)cc12.O=C(O)/C=C\C(=O)O [TEGASEROD MALEATE] | Compound NOT metabolized | – | Compound NOT metabolized | Compound NOT metabolized | Compound NOT metabolized | Compound NOT metabolized | – | Compound NOT metabolized | Compound NOT metabolized | Compound NOT metabolized | Compound NOT metabolized | Compound NOT metabolized | Compound metabolized | Compound metabolized | Compound metabolized | Compound NOT metabolized | Compound metabolized | Compound NOT metabolized | Compound NOT metabolized | –
6 | CSc1ccc2c(c1)C(N1CCN(C)CC1)Cc1ccccc1S2.O=C(O)/C=C\C(=O)O (centres undefined) | Compound NOT metabolized | Compound NOT metabolized | Compound NOT metabolized | Compound NOT metabolized | Compound NOT metabolized | Compound metabolized | – | Compound NOT metabolized | Compound metabolized | Compound NOT metabolized | Compound NOT metabolized | Compound NOT metabolized | Compound metabolized | Compound metabolized | Compound metabolized | Compound NOT metabolized | Compound metabolized | Compound NOT metabolized | Compound NOT metabolized | –
7 | C#C[C@]1(OC(C)=O)CC[C@H]2[C@@H]3CCC4=CC(=O)CC[C@@H]4[C@H]3CC[C@@]21C [NORETHINDRONE ACETATE] | Compound metabolized | Compound metabolized | Compound metabolized | Compound metabolized | – | Compound metabolized | – | Compound metabolized | Compound metabolized | Compound metabolized | – | Compound metabolized | Compound metabolized | Compound metabolized | – | – | Compound metabolized | – | Compound NOT metabolized | Compound metabolized
8 | CCOC(=O)[C@H](CCc1ccccc1)N[C@@H](C)C(=O)N1CCC[C@H]1C(=O)O.O=C(O)/C=C\C(=O)O [ENALAPRIL MALEATE] | Compound NOT metabolized | Compound NOT metabolized | Compound NOT metabolized | Compound NOT metabolized | Compound NOT metabolized | Compound NOT metabolized | Compound NOT metabolized | Compound NOT metabolized | Compound metabolized | Compound NOT metabolized | Compound NOT metabolized | Compound NOT metabolized | Compound NOT metabolized | Compound metabolized | Compound NOT metabolized | Compound NOT metabolized | Compound NOT metabolized | Compound NOT metabolized | Compound NOT metabolized | –
